Measured values reported in US20180119123A1, “CRISPR/CAS-RELATED METHODS AND COMPOSITIONS FOR TREATING HIV INFECTION AND AIDS” (EDITAS MEDICINE, INC., priority 2015, published 2018).
“Also recorded” adds a separate entry of the source.

Tests used:
[1] = tested on: human mobilized peripheral blood CD34^+ HSCs; assay: Fold change in CD34+ cell number (trypan blue count) 96 hours after Nucleofection; format: cell-based
Procedure: Human CD34^+ HSCs cells from mobilized peripheral blood (AllCells) were thawed into StemSpan Serum-Free Expansion Medium (SFEM™, StemCell Technologies) containing 100 ng/mL each of the following cytokines: human stem cell factor (SCF), thrombopoietin (TPO), and flt-3 ligand (FL) (all from Peprotech). Cells were grown for 3 days in a humidified incubator and 5% CO2 20% O2. […] The published use of UM171 involved prolonged exposure of HSCs to the small molecule for ex vivo expansion of HSCs. In the current experiment, HSCs were exposed to UM171 for 2 hours before and 24 hours after delivery of Cas9 and gRNA plasmid DNA. This UM171 treatment protocol was based on pilot studies performed by the inventors that indicated acute pre-treatment with UM171 before lentivirus vector mediated gene delivery improved HSC viability compared to HSCs treated with vehicle (dimethylsulfoxide, DMSO, Sigma) alone. […] At 96 hours after Nucleofection™, CD34^+ cells were counted for by trypan blue exclusion and divided into 3 portions for the following analyses: a) flow cytometry analysis for assessment of viability by co-staining with 7-Aminoactinomycin-D (7-AAD) and allophycocyanin (APC)-conjugated Annexin-V antibody (ebioscience); b) flow cytometry analysis for maintenance of HSC phenotype (after co-staining with phycoerythrin (PE)-conjugated anti-human CD34 antibody and fluorescein isothicyanate (FITC)-conjugated anti-human CD90, both from BD Bioscience; c) hematopoietic colony forming cell (CFC) analysis by plating 1500 cells in semi-solid methylcellulose based Methocult medium (StemCell Technologies) that supports differentiation of erythroid and myeloid blood cell colonies from HSCs and serves as a surrogate assay to evaluate HSC multipotency and differentiation potential ex vivo; d) genomic DNA analysis for detection of editing at the CCR5 locus. […]

[2] = tested on: CD34^+ HSCs; assay: Hematopoietic colony forming cell (CFC) assay in Methocult medium; format: cell-based, human; details: Nucleofection with wild-type Cas9 and CCR5-U43 gRNA plasmid DNA + UM171; two weeks
Procedure: Human CD34^+ HSCs cells from mobilized peripheral blood (AllCells) were thawed into StemSpan Serum-Free Expansion Medium (SFEM™, StemCell Technologies) containing 100 ng/mL each of the following cytokines: human stem cell factor (SCF), thrombopoietin (TPO), and flt-3 ligand (FL) (all from Peprotech). Cells were grown for 3 days in a humidified incubator and 5% CO2 20% O2. […] The published use of UM171 involved prolonged exposure of HSCs to the small molecule for ex vivo expansion of HSCs. In the current experiment, HSCs were exposed to UM171 for 2 hours before and 24 hours after delivery of Cas9 and gRNA plasmid DNA. This UM171 treatment protocol was based on pilot studies performed by the inventors that indicated acute pre-treatment with UM171 before lentivirus vector mediated gene delivery improved HSC viability compared to HSCs treated with vehicle (dimethylsulfoxide, DMSO, Sigma) alone. After the 2-hour pretreatment with UM171, 1 million […] HSCs were Nucleofected™ with the Amaxa™ 4D Nucleofector™ device (Lonza), Program EO100 using components of the P3 Primary Cell 4D-Nucleofector Kit™ (Lonza) according to the manufacturer's instructions. Briefly, one million cells were suspended in Nucleofector™ solution and the following amounts of plasmid DNA were added to the cell suspension: 1250 ng plasmid expressing CCR5 gRNA (CCR5-U43) from the human U6 promoter and 3750 ng plasmid expressing wild-type S. pyogenes Cas 9 transcriptionally regulated by the CMV promoter. After Nucleofection™, cells were plated into Stemspan-SFEM™ supplemented with SCF, TPO, FL and 40 nM UM171. After overnight incubation, HSCs were plated in Stemspan-SFEM™ plus cytokines without UM171. At 96 hours after Nucleofection™, CD34^+ cells were counted for by trypan blue exclusion and divided into 3 portions for the following analyses: a) flow cytometry analysis for assessment of viability by co-staining with 7-Aminoactinomycin-D (7-AAD) and allophycocyanin (APC)-conjugated Annexin-V antibody (ebioscience); b) flow cytometry analysis for maintenance of HSC phenotype (after co-staining with phycoerythrin (PE)-conjugated anti-human CD34 antibody and fluorescein isothicyanate (FITC)-conjugated anti-human CD90, both from BD Bioscience; c) hematopoietic colony forming cell (CFC) analysis by plating 1500 cells in semi-solid methylcellulose based Methocult medium (StemCell Technologies) that supports differentiation of erythroid and myeloid blood cell colonies from HSCs and serves as a surrogate assay to evaluate HSC multipotency and differentiation potential ex vivo; d) genomic DNA analysis for detection of editing at the CCR5 locus. Genomic DNA was extracted from HSCs 96 hours after Nucleofection™, and CCR5 locus-specific PCR reactions were performed.
To evaluate maintenance of HSC potency and differentiation potential, two weeks after plating CD34^+ HSCs in CFC assays, hematopoietic activity was quantified based on scoring the HSC progeny by enumerating the total number of hematopoietic colony forming units (CFU) and the frequencies of specific blood cell phenotypes, including: mixed myeloid/erythroid (Granulocyte-erythroid-monocyte macrophage, CFU-GEMM), myeloid (CFU-macrophage (M), granulocyte-macrophage (CFU-GM)) and erythroid (CFU-E) colonies. CD34^+ HSCs that were Nucleofected™ after UM171 pre-treatment maintained CFC potential compared to un-Nucleofected™ HSCs (Table 12). In contrast, CD34^+ HSCs that were Nucleofected™ without UM171 pre-treatment had reduced CFC potential (lower total CFC counts and reduced numbers of mixed-phenotype colonies (CFU-GEMM) and erythroid colonies (CFU-E)) in comparison to un-Nucleofected™ CD34^+ HSCs.
Human CD34^+ HSCs cells from mobilized peripheral blood (AllCells) were thawed into StemSpan Serum-Free Expansion Medium (SFEM, StemCell Technologies) containing 100 ng/mL each of the following cytokines: human stem cell factor (SCF), thrombopoietin (TPO), and flt-3 ligand (FL) (all from Peprotech). […]

SMILES: Cn1nnc(-c2ccc3c(c2)[nH]c2nc(Cc4ccccc4)nc(N[C@H]4CC[C@H](N)CC4)c23)n1 [UM171, (1r,4r)-N1-(2-benzyl-7-(2-methyl-2H-tetrazol-5-yl)-9H-pyrimido[4,5-b]indol-4-yl)cyclohexane-1,4-diamine]
- Fold expansion / proliferation potential of Nucleofected CD34+ cells with UM171 pre-treatment versus without ([1]; 40 nM UM171, S. aureus or S. pyogenes Cas9 and CXCR4 gRNA plasmids): higher fold-expansion; also recorded: maintain proliferation potential
- Fold change in cell number of CD34^+ cells (96 hours vs. time 0 cell number) ([1]; Nucleofection with wild type Cas9 and CCR5-U43 gRNA plasmid DNA + UM171 treatment (40 nM, 2 hours before and 24 hours after)): 1.5
- Number of colony forming units: E [2]: 92 colony forming units per 1500 CD34^+ HSCs plated
- Number of colony forming units: G [2]: 40 colony forming units per 1500 CD34^+ HSCs plated
- Number of colony forming units: GEMM [2]: 20 colony forming units per 1500 CD34^+ HSCs plated
- Number of colony forming units: GM [2]: 32 colony forming units per 1500 CD34^+ HSCs plated
- Number of colony forming units: M [2]: 64 colony forming units per 1500 CD34^+ HSCs plated
- Number of colony forming units: Total [2]: 228 colony forming units per 1500 CD34^+ HSCs plated
